Structures can show the parent of a compound that is named as a salt.
Columns and labels:
[1] = biological target: T1, urokinase enzyme Abbokinase (Homo sapiens, UniProt P00749); assay: Determination of Urokinase Inhibition (chromogenic substrate S-2444); format: biochemical; conditions: substrate S-2444 at 200 μM, pH 7.4, enzyme 2-3 nM, 405 nm, 15 minutes; read-out: Inhibitory Potency Against Urokinase, IC50
T1 construct: purchased Abbott Laboratories, Abbott Park, Ill
Method: Distributor of Chromogenix) at 200 μM. […] Four concentrations were chosen, then 5 μl of each were diluted to a total assay volume of 200 μl. […] Several vials were reconstituted as directed on the vial, aliquoted and stored frozen. The enzyme was further diluted in assay buffer and 10 μl was used in the assay. Enzyme concentration in the assay was 2-3 nM. […] The Spectromax® calculated the reaction rates which were used to calculate percent inhibition of the compounds of this invention versus the reaction rate of the enzyme in the absence of any inhibitor. The Ki 's of the inhibitors were calculated from the percent inhibition and previously established Km.

[2] = tested on: angiogenesis/capillary network formation; conditions: in vitro; Alliegro and Glaser, J. Cell Biol. 115: 402a (1991); cited from earlier work

| Structure (SMILES) | IC50 [1] [nM] | inhibit angiogenesis/capillary network formation [2] |
| --- | --- | --- |
| N=C(N)c1cc2ccc(C(=O)Nc3ccccc3)cc2s1 [Example 3, 2-[amino(imino)methyl]-N-phenyl-1-benzothiophene-6-carboxamide] | 3220 | – |
| N=C(N)NC(=O)c1nc(Cl)c(N)nc1N [Amiloride] | – | angiogenesis/capillary network formation in vitro |
| N=C(N)c1cc2c(Nc3nccs3)cccc2s1 [Example 2, 4-(1,3-thiazol-2-ylamino)-1-benzothiophene-2-carboximidamide trifluoroacetic acid salt] | 192 | – |
| CC(C)Oc1cccc(NC(=O)c2ccc3cc(C(=N)N)sc3c2)c1 [Example 4, 2-[amino(imino)methyl]-N-(3-isopropoxyphenyl)-1-benzothiophene-6-carboxamide] | 680 | – |

— patent publication US6207701A, “Urokinase inhibitors” (Abbott Laboratories, priority 2000, dated 2001)
